Experimental data reported in patent US20090306227A1, “TABLET FOR REMOVING TONGUE COATING” (priority 2005, published 2009).

Test: Solubility of saccharides in water at 37° C.
Type: physicochemical
Settings: for Used Saccharide (Solubility at 37° C. (weight %)): value in parentheses under the saccharide name; for Solubility in water at 37° C.: unit from the definition, the table prints none
Procedure: The solubility can be determined by a method well-known to those skilled in the art. For example, solubility (% by weight) can be determined as follows. A solute is dissolved gradually in water of weight W1 at 37° C. When the largest amount of the solute is dissolved in the water, the weight of the solution is W2. The weight of the dissolved solute W3 (=W2−W1) is divided by the weight of the solution W2, and multiplied by 100 (i.e., converted to a percentage).

Row | Compound | Used Saccharide (Solubility at 37° C. (weight %)) | Solubility in water at 37° C. [% by weight]
1 | OC[C@@H](O)[C@@H](O)[C@H](O)[C@@H](O)CO [Sorbitol] | (74) weight % | 74
2 | OC[C@@H](O)[C@H](O)[C@@H](O)CO [Xylitol] | (72) weight % | 72
3 | OC[C@H]1O[C@@](CO)(O[C@H]2O[C@H](CO)[C@@H](O)[C@H](O)[C@H]2O)[C@@H](O)[C@@H]1O [Sucrose] | (68) weight % | 68
4 | O=C(CO)[C@@H](O)[C@H](O)[C@H](O)CO [Fructose] | (84) weight % | 84
5 | OC[C@@H](O)[C@@H](O[C@@H]1O[C@H](CO)[C@H](O)[C@H](O)[C@H]1O)[C@H](O)[C@@H](O)CO [Lactitol] | (70) weight % | 70
6 | OC[C@H]1O[C@H](OC[C@H]2OC(O)(CO)[C@@H](O)[C@@H]2O)[C@H](O)[C@@H](O)[C@@H]1O (stereo partly shown) [Palatinose] | (40) weight % | 40
7 | OC[C@@H](O)[C@@H](O)[C@H](O)[C@H](O)CO [Mannitol] | (23) weight % | 23
8 | OC[C@@H](O)[C@@H](O[C@H]1O[C@H](CO)[C@@H](O)[C@H](O)[C@H]1O)[C@H](O)[C@@H](O)CO [Maltitol] | (63) weight % | 63
9 | Palatinit | (37) weight % | 37
10 | OC[C@H]1O[C@H](O[C@H]2O[C@H](CO)[C@@H](O)[C@H](O)[C@H]2O)[C@H](O)[C@@H](O)[C@@H]1O [Trehalose] | (52) weight % | 52
11 | OC[C@@H](O)[C@@H](O)CO [Erythritol] | (44) weight % | 44
